Measured values published in patent US20260062387A1, “SALT-INDUCIBLE KINASE INHIBITOR COMPOUND AND PHARMACEUTICAL COMPOSITION INCLUDING THE SAME” (MITSUBISHI TANABE PHARMA CORPORATION, priority 2023, published 2026).
pIC50: −log10 of the molar value. Each block holds one molecule with its values, some of them ahead of it.

Legend:
Format in all cases: biochemical
GST-tagged SIK2 = GST-tagged SIK2 (Homo sapiens (Human), UniProt Q9H0K1); assay: SIK2 inhibition test (ADP-Glo Max Assay); conditions: enzyme 3 nM, AMARA Peptide 200 μM, ATP 1 mM, 2 hours room temperature
GST-tagged SIK2, sequence (Q9H0K1 whole entry): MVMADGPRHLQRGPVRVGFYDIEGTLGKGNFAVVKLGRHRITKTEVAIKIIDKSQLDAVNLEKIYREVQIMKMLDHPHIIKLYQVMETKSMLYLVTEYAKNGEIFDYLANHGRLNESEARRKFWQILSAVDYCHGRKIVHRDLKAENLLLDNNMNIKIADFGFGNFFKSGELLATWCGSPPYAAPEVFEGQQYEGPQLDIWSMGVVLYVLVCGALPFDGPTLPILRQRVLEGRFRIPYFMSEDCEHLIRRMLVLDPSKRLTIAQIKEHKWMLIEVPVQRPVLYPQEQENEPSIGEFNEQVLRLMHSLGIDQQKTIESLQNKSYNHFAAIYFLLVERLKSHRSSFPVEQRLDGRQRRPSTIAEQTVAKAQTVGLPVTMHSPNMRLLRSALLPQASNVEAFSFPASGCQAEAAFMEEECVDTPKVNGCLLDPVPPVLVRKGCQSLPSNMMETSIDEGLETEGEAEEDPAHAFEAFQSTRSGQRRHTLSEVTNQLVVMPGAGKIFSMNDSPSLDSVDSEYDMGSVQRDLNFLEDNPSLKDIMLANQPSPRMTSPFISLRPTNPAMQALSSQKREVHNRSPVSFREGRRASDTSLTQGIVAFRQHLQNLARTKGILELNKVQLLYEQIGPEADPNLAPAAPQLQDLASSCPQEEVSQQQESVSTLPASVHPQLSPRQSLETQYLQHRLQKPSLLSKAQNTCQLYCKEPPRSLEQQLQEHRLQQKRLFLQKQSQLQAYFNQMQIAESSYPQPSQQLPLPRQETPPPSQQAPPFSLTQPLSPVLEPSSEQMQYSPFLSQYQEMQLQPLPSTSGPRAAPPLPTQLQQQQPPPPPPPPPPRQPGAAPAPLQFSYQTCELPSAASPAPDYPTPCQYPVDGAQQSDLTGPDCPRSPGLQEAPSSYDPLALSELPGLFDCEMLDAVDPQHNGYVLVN
Method in brief: (§1)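 GST-tagged human SIK1, SIK2 and SIK3 at 20 nM, 3 nM and 100 nM final in Tris pH 7.5 buffer, with AMARA peptide (200 μM for SIK1/SIK2, 100 μM for SIK3), 1 mM ATP and 5 mM MgCl2. Reaction ran 2 h at room temperature. ADP read by ADP-Glo Max luminescence, and IC50 fitted from 16 concentrations.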

GST-tagged SIK1 = GST-tagged SIK1 (Homo sapiens (Human), UniProt P57059); assay: SIK1 inhibition test (ADP-Glo Max Assay); conditions: enzyme 20 nM, AMARA Peptide 200 μM, ATP 1 mM, 2 hours room temperature
GST-tagged SIK1, sequence (P57059 whole entry): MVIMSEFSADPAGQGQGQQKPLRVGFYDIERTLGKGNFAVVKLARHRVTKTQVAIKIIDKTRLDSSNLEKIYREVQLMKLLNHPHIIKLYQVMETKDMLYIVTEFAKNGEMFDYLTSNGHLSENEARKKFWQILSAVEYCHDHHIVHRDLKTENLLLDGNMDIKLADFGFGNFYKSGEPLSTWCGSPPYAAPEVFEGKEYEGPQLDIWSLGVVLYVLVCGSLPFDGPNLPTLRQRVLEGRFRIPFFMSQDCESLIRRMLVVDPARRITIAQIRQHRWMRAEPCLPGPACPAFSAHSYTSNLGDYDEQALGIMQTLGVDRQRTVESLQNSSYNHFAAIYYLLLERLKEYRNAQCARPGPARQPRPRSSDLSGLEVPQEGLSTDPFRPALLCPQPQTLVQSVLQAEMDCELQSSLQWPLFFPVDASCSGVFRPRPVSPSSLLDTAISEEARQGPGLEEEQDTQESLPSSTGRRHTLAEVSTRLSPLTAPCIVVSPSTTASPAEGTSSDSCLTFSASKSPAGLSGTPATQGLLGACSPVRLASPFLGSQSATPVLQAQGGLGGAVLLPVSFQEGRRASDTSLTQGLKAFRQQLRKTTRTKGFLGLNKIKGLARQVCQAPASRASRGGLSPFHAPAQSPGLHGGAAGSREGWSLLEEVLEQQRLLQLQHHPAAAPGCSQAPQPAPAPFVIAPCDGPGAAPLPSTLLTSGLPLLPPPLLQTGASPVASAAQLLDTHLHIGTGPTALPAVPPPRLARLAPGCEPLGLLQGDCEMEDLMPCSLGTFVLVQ
Method in brief: as §1

GST-tagged SIK3 = GST-tagged SIK3 (Homo sapiens (Human), UniProt Q9Y2K2); assay: SIK3 inhibition test (ADP-Glo Max Assay); conditions: enzyme 100 nM, AMARA Peptide 100 μM, ATP 1 mM, 2 hours room temperature
GST-tagged SIK3, sequence (Q9Y2K2 whole entry): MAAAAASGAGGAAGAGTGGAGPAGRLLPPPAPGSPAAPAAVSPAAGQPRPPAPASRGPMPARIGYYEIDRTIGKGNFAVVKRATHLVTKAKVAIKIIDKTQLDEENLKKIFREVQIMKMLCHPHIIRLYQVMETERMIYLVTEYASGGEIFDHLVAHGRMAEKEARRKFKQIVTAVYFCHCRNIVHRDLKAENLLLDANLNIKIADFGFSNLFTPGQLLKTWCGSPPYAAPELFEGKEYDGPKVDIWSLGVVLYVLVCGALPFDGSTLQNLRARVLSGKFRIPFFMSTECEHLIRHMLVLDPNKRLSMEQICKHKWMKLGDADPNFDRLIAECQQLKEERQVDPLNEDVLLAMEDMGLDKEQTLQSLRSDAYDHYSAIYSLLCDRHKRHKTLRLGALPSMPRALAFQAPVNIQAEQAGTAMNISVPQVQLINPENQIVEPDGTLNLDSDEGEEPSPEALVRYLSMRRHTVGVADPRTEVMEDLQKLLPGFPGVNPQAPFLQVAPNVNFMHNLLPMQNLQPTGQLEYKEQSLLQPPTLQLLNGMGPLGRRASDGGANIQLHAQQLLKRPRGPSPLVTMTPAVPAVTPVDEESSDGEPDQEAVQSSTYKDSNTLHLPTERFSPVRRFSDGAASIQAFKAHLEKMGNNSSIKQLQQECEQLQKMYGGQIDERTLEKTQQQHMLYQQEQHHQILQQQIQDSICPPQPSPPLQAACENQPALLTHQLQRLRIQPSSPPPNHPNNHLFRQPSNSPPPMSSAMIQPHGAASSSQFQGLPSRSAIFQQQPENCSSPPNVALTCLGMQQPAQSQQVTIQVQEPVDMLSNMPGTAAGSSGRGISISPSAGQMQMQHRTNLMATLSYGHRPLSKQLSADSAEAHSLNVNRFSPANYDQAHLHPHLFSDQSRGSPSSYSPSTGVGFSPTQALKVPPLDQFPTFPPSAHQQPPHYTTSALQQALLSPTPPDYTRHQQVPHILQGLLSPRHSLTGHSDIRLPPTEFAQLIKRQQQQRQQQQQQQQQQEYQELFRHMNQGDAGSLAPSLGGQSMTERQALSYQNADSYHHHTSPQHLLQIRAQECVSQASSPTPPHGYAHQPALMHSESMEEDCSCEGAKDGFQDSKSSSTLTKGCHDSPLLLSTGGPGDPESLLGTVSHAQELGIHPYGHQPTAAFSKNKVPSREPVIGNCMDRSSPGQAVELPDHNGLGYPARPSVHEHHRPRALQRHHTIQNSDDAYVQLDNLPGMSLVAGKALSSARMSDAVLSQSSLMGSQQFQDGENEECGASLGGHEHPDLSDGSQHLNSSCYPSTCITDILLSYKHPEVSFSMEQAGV
Method in brief: as §1

Compound: COCCn1cc(-c2cc(C(F)F)c3c(-c4cc(OC)c(C(N)=O)c(OC(F)F)c4)n(C)nc3c2)cn1 [Example 134, 2-(difluoromethoxy)-4-[4-(difluoromethyl)-6-[1-(2-methoxyethyl)pyrazol-4-yl]-2-methylindazol-3-yl]-6-methoxybenzamide]
pIC50 (GST-tagged SIK2): 8.48 | pIC50 (GST-tagged SIK1): 7.87 | pIC50 (GST-tagged SIK3): 8.24

Compound: COc1cc(-c2c3c(C#N)cc(-c4cnn(CC(C)C)c4)cc3nn2C)cc(OC(F)F)c1C(N)=O [Example 135, 4-[4-cyano-2-methyl-6-[1-(2-methylpropyl)pyrazol-4-yl]indazol-3-yl]-2-(difluoromethoxy)-6-methoxybenzamide]
pIC50 (GST-tagged SIK2): 8.21 | pIC50 (GST-tagged SIK1): 7.76 | pIC50 (GST-tagged SIK3): 8.23

Compound: CCOc1cc(-c2cnn(C)c2)cc2nn(C)c(-c3cc(OC)c(C(N)=O)c(OC(F)F)c3)c12 [Example 136, 2-(difluoromethoxy)-4-[4-ethoxy-2-methyl-6-(1-methylpyrazol-4-yl)indazol-3-yl]-6-methoxybenzamide]
pIC50 (GST-tagged SIK2): 8.47 | pIC50 (GST-tagged SIK1): 8.12 | pIC50 (GST-tagged SIK3): 7.87

Compound: COc1cc(-c2c3c(C#N)cc(-c4cnn(CCC5(O)CCC5)c4)cc3nn2C)cc(OC(F)F)c1C(N)=O [Example 137, 4-[4-cyano-6-[1-[2-(1-hydroxycyclobutyl)ethyl]pyrazol-4-yl]-2-methylindazol-3-yl]-2-(difluoromethoxy)-6-methoxybenzamide]
pIC50 (GST-tagged SIK2): 8.24 | pIC50 (GST-tagged SIK1): 7.94 | pIC50 (GST-tagged SIK3): 8.33

Compound: COc1cc(-c2c3c(C#N)cc(-c4cnn(CC5CC5)c4)cc3nn2C)cc(OC(F)F)c1C(N)=O [Example 138, 4-[4-cyano-6-[1-(cyclopropylmethyl)pyrazol-4-yl]-2-methylindazol-3-yl]-2-(difluoromethoxy)-6-methoxybenzamide]
pIC50 (GST-tagged SIK2): 8.14 | pIC50 (GST-tagged SIK1): 7.77 | pIC50 (GST-tagged SIK3): 8.18

Compound: CCn1cc(-c2cc(C#N)c3c(-c4cc(OC)c5c(c4)C(C)(C)CNC5=O)n(C)nc3c2)cn1 [Example 139, 6-(1-ethylpyrazol-4-yl)-3-(8-methoxy-4,4-dimethyl-1-oxo-2,3-dihydroisoquinolin-6-yl)-2-methylindazole-4-carbonitrile]
pIC50 (GST-tagged SIK2): 8.07 | pIC50 (GST-tagged SIK1): 8.05 | pIC50 (GST-tagged SIK3): 7.89

Compound: CCCn1cc(-c2cc(C#N)c3c(-c4cc(OC)c5c(c4)C(C)(C)CNC5=O)n(C)nc3c2)cn1 [Example 140, 3-(8-methoxy-4,4-dimethyl-1-oxo-2,3-dihydroisoquinolin-6-yl)-2-methyl-6-(1-propylpyrazol-4-yl)indazol-4-carbonitrile]
pIC50 (GST-tagged SIK2): 7.91 | pIC50 (GST-tagged SIK1): 8.11 | pIC50 (GST-tagged SIK3): 7.99

Compound: COc1cc(-c2c3c(C#N)cc(-c4cnn(C[C@H](C)O)c4)cc3nn2C)cc2c1C(=O)NCC2(C)C [Example 144, 6-[1-[(2S)-2-hydroxypropyl]pyrazol-4-yl]-3-(8-methoxy-4,4-dimethyl-1-oxo-2,3-dihydroisoquinolin-6-yl)-2-methylindazole-4-carbonitrile]
pIC50 (GST-tagged SIK2): 8.43 | pIC50 (GST-tagged SIK1): 8.00 | pIC50 (GST-tagged SIK3): 8.11

Compound: COc1cc(-c2c3c(C#N)cc(-c4cnn(CC(F)(F)F)c4)cc3nn2C)cc2c1C(=O)NCC2(C)C [Example 146, 3-(8-methoxy-4,4-dimethyl-1-oxo-2,3-dihydroisoquinolin-6-yl)-2-methyl-6-[1-(2,2,2-trifluoroethyl)pyrazol-4-yl]indazole-4-carbonitrile]
pIC50 (GST-tagged SIK2): 8.44 | pIC50 (GST-tagged SIK1): 7.90 | pIC50 (GST-tagged SIK3): 8.11

Compound: COc1cc(-c2c3c(C#N)cc(-c4cn[nH]c4)cc3nn2C)cc2c1C(=O)NCC2(C)C [Example 147, 3-(8-methoxy-4,4-dimethyl-1-oxo-2,3-dihydroisoquinolin-6-yl)-2-methyl-6-(1H-pyrazol-4-yl)indazol-4-carbonitrile]
pIC50 (GST-tagged SIK2): 8.49 | pIC50 (GST-tagged SIK1): 8.20 | pIC50 (GST-tagged SIK3): 7.87

Compound: COc1cc(-c2c3c(C(F)F)cc(-c4cn[nH]c4)cc3nn2C)cc(OC(F)F)c1C(=O)N[C@@H]1CC1(F)F [Example 150, N-[(1R)-2,2-difluorocyclopropyl]-2-(difluoromethoxy)-4-[4-(difluoromethyl)-2-methyl-6-(1H-pyrazol-4-yl)indazol-3-yl]-6-methoxybenzamide]
pIC50 (GST-tagged SIK2): 8.62 | pIC50 (GST-tagged SIK1): 7.99 | pIC50 (GST-tagged SIK3): 8.89

Compound: COCCCn1cc(-c2cc(C#N)c3c(-c4cc(OC)c5c(c4)C(C)(C)CNC5=O)n(C)nc3c2)cn1 [Example 151, 3-(8-methoxy-4,4-dimethyl-1-oxo-2,3-dihydroisoquinolin-6-yl)-6-[1-(3-methoxypropyl)pyrazol-4-yl]-2-methylindazole-4-carbonitrile]
pIC50 (GST-tagged SIK2): 8.46 | pIC50 (GST-tagged SIK1): 8.01 | pIC50 (GST-tagged SIK3): 7.85

Compound: CCOCCn1cc(-c2cc(C#N)c3c(-c4cc(OC)c5c(c4)C(C)(C)CNC5=O)n(C)nc3c2)cn1 [Example 152, 6-[1-(2-ethoxyethyl)pyrazol-4-yl]-3-(8-methoxy-4,4-dimethyl-1-oxo-2,3-dihydroisoquinolin-6-yl)-2-methylindazole-4-carbonitrile]
pIC50 (GST-tagged SIK2): 8.47 | pIC50 (GST-tagged SIK1): 8.14 | pIC50 (GST-tagged SIK3): 7.84

Compound: COc1cc(-c2c3c(C(F)F)cc(-c4cnn([C@H]5CCOC5)c4)cc3nn2C)cc(OC(F)F)c1C(N)=O [Example 158, 2-(difluoromethoxy)-4-[4-(difluoromethyl)-2-methyl-6-[1-[(3S)-oxolan-3-yl]pyrazol-4-yl]indazol-3-yl]-6-methoxybenzamide]
pIC50 (GST-tagged SIK2): 8.66 | pIC50 (GST-tagged SIK1): 7.93 | pIC50 (GST-tagged SIK3): 8.44

More lines, in order of rising pIC50 (GST-tagged SIK2), values ahead:

pIC50 (GST-tagged SIK2): 8.66 | pIC50 (GST-tagged SIK1): 7.98 | pIC50 (GST-tagged SIK3): 8.07
Compound: COCCn1cc(-c2cc(C#N)c3c(-c4cc(OC)c5c(c4)C(C)(C)CNC5=O)n(C)nc3c2)cn1 [Example 143, 3-(8-methoxy-4,4-dimethyl-1-oxo-2,3-dihydroisoquinolin-6-yl)-6-[1-(2-methoxyethyl)pyrazol-4-yl]-2-methylindazole-4-carbonitrile]

pIC50 (GST-tagged SIK2): 8.68 | pIC50 (GST-tagged SIK1): 7.87 | pIC50 (GST-tagged SIK3): 8.31
Compound: COCCn1cc(-c2cc(C#N)c3c(-c4cc(OC)c(C(N)=O)c(OC(F)F)c4)n(C)nc3c2)cn1 [Example 133, 4-[4-cyano-6-[1-(2-methoxyethyl)pyrazol-4-yl]-2-methylindazol-3-yl]-2-(difluoromethoxy)-6-methoxybenzamide]

pIC50 (GST-tagged SIK2): 8.70 | pIC50 (GST-tagged SIK1): 7.75 | pIC50 (GST-tagged SIK3): 8.57
Compound: CCn1cc(-c2cc(C#N)c3c(-c4cc(OC)c(C(N)=O)c(OC(F)F)c4)n(C)nc3c2)cn1 [Example 141, 4-[4-cyano-6-(1-ethylpyrazol-4-yl)-2-methylindazol-3-yl]-2-(difluoromethoxy)-6-methoxybenzamide]

pIC50 (GST-tagged SIK2): 8.72 | pIC50 (GST-tagged SIK1): 7.79 | pIC50 (GST-tagged SIK3): 8.57
Compound: COc1cc(-c2c3c(C#N)cc(-c4cnn(CCC(C)(C)O)c4)cc3nn2C)cc(OC(F)F)c1C(N)=O [Example 142]

pIC50 (GST-tagged SIK2): 8.74 | pIC50 (GST-tagged SIK1): 7.99 | pIC50 (GST-tagged SIK3): 7.72
Compound: COc1cc(-c2c3c(OCCO)cc(-c4cnn(C)c4)cc3nn2C)cc(OC(F)F)c1C(N)=O [Example 145, 2-(difluoromethoxy)-4-[4-(2-hydroxyethoxy)-2-methyl-6-(1-methylpyrazol-4-yl)indazol-3-yl]-6-methoxybenzamide]

pIC50 (GST-tagged SIK2): 8.74 | pIC50 (GST-tagged SIK1): 8.07 | pIC50 (GST-tagged SIK3): 8.57
Compound: COc1cc(-c2c3c(C#N)cc(-c4cnn(C[C@@H](C)O)c4)cc3nn2C)cc(OC(F)F)c1C(=O)N[C@@H]1CC1(F)F [Example 153, 4-[4-cyano-6-[1-[(2R)-2-hydroxypropyl]pyrazol-4-yl]-2-methylindazol-3-yl]-N-[(1R)-2,2-difluorocyclopropyl]-2-(difluoromethoxy)-6-methoxybenzamide]

pIC50 (GST-tagged SIK2): 8.82 | pIC50 (GST-tagged SIK1): 8.13 | pIC50 (GST-tagged SIK3): 8.26
Compound: CCn1cc(-c2cc(OC(F)F)c3c(-c4cc(OC)c(C(N)=O)c(OC(F)F)c4)n(C)nc3c2)cn1 [Example 155, 2-(difluoromethoxy)-4-[4-(difluoromethoxy)-6-(1-ethylpyrazol-4-yl)-2-methylindazol-3-yl]-6-methoxybenzamide]

pIC50 (GST-tagged SIK2): 8.89 | pIC50 (GST-tagged SIK1): 8.22 | pIC50 (GST-tagged SIK3): 8.96
Compound: COc1cc(-c2c3c(C#N)cc(-c4cn[nH]c4)cc3nn2C)cc(OC(F)F)c1C(=O)N[C@@H]1CC1(F)F [Example 148, 4-[4-cyano-2-methyl-6-(1H-pyrazol-4-yl)indazol-3-yl]-N-[(1R)-2,2-difluorocyclopropyl]-2-(difluoromethoxy)-6-methoxybenzamide]

pIC50 (GST-tagged SIK2): 8.89 | pIC50 (GST-tagged SIK1): 7.98 | pIC50 (GST-tagged SIK3): 8.80
Compound: COc1cc(-c2c3c(C#N)cc(-c4cc[nH]n4)cc3nn2C)cc(OC(F)F)c1C(=O)N[C@@H]1CC1(F)F [Example 149, 4-[4-cyano-2-methyl-6-(1H-pyrazol-3-yl)indazol-3-yl]-N-[(1R)-2,2-difluorocyclopropyl]-2-(difluoromethoxy)-6-methoxybenzamide]

pIC50 (GST-tagged SIK2): 8.92 | pIC50 (GST-tagged SIK1): 8.12 | pIC50 (GST-tagged SIK3): 8.02
Compound: COCCn1cc(-c2cc(OC(F)F)c3c(-c4cc(OC)c(C(N)=O)c(OC(F)F)c4)n(C)nc3c2)cn1 [Example 154, 2-(difluoromethoxy)-4-[4-(difluoromethoxy)-6-[1-(2-methoxyethyl)pyrazol-4-yl]-2-methylindazol-3-yl]-6-methoxybenzamide]

pIC50 (GST-tagged SIK2): 9.00 | pIC50 (GST-tagged SIK1): 8.29 | pIC50 (GST-tagged SIK3): 8.10
Compound: COc1cc(-c2c3c(OCC(F)(F)F)cc(-c4cnn(C)c4)cc3nn2C)cc(OC(F)F)c1C(N)=O [Example 157, 2-(difluoromethoxy)-6-methoxy-4-[2-methyl-6-(1-methylpyrazol-4-yl)-4-(2,2,2-trifluoroethoxy)indazol-3-yl]benzamide]

pIC50 (GST-tagged SIK2): 9.15 | pIC50 (GST-tagged SIK1): 8.37 | pIC50 (GST-tagged SIK3): 8.59
Compound: COc1cc(-c2c3c(OCC(F)F)cc(-c4cnn(C)c4)cc3nn2C)cc(OC(F)F)c1C(N)=O [Example 156, 4-[4-(2,2-difluoroethoxy)-2-methyl-6-(1-methylpyrazol-4-yl)indazol-3-yl]-2-(difluoromethoxy)-6-methoxybenzamide]
